Test results: US20250129067A1 (Progentos Therapeutics, Inc., priority 2021, published 2025)
Counter-ions that a name gives are not always drawn. Like-named read-outs stand apart in the source and are kept apart here.

What was measured:
[1] = system: GPR17+ cells (newly differentiated oligodendrocytes); assay: In vivo OPC differentiation, GPR17+ cells in brain; conditions: for fold induction at 3 mg/kg / fold induction at 30 mg/kg / fold induction at 3.3 mg/kg: Mus musculus, po, 24 h, read-out: GPR17 Fold Induction (Over Vehicle); for In vivo GPR17+ cells, GPR17 Fold Induction (Over Vehicle): adult female C57BL/6 mice, PO or IP, treatment period 1-3 days, entire brain, fold change over vehicle treated animals
Protocol: The ability of newly constructed compounds to drive OPC differentiation and myelination in vivo was tested. The ability of these compounds to drive OPC differentiation in vivo was tested using GPR17 as an indicator of newly differentiated oligodendrocytes.
Compounds were delivered PO or IP either QD or BID. Mice were dosed once, transiently, or continuously through the treatment period, which ranged from 1-3 days.
Mice were euthanized by isoflurane exposure and transcardially perfused with 14 mL of PBS (Sigma Cat #P4417-50TAB) followed by 22 mL of 3.2% paraformaldehyde in PBS. The brains were removed and postfixed for a minimum of 24 hours in 20 mL of 3.2% paraformaldehyde.
50-micron floating sections were cut using a Leica VT1200S vibratome. Every 24th section, extending through the antero-posterior extent of the brain, was stained. The selected brain sections were washed three times in PBS for 3 minutes each. The floating sections were incubated in the primary antibodies (see Table 10, below) diluted in blocking solution overnight at room temperature on a shaker. […] The next day, the sections were again washed three times in PBS for 3 minutes each and then incubated in the secondary antibodies diluted in blocking solution for 2 hours at room temperature on a shaker. After incubation, the sections were washed three times in PBS for 3 minutes each and mounted on a slide to be imaged using the Olympus Slide Scanner VS200.
The images were analyzed using a custom protocol developed using Visiopharm software to count GPR17+ cells. Cells were considered GPR17+ if they contained an Olig2 positive nucleus, and intense GPR 17 staining that filled their processes. Statistical analysis was done using one-way ANOVA with multiple comparison in GraphPad Prism software.

[2] = system: Oligodendrocyte progenitor cells (OPCs); assay: In vitro OPC differentiation assay, GPR17 expression (immunocytochemistry); conditions: 72 hours; for GPR17 Fold Induction (Over Vehicle; 3 μM): 3 μM (10× concentration, final 0.3 μM), fold change over vehicle; for GPR17 Fold Induction (Over Vehicle; 5 μM): primary rat OPCs, 5 μM (10x; final 0.5 μM per method), percent GPR17+ cells as fold change over vehicle
PDGFRα = PDGFRα (Homo sapiens (Human), UniProt P16234); assay: PDGFRα kinase enzyme assay (Promega PDGFRα Kinase Enzyme System, ADP-Glo); assay type: biochemical; conditions: 150 uM ATP
In short: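 Purified PDGFRα protein (20 ng) reacted with test compound per the Promega kinase system protocol. ADP formed was measured by ADP-Glo luminescence against a standard curve, giving IC50.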

[3] = 11-point dose response, 10,000 nM to 0.169 nM, BLQ = below limit of quantitation, read-out: IC50 Values on PDGFRα Kinase Inhibition, IC50
[4] = 20 ng purified PDGFRα, Poly (Glu4Tyr1) substrate, two hours, 11-point dose response, read-out: IC50 Values on PDGFRα Kinase Inhibition
[5] = 11-point dose response, 10,000 nM to 0.169 nM, BLQ = below limit of quantitation

PDGFRα, sequence (P16234 24-1089): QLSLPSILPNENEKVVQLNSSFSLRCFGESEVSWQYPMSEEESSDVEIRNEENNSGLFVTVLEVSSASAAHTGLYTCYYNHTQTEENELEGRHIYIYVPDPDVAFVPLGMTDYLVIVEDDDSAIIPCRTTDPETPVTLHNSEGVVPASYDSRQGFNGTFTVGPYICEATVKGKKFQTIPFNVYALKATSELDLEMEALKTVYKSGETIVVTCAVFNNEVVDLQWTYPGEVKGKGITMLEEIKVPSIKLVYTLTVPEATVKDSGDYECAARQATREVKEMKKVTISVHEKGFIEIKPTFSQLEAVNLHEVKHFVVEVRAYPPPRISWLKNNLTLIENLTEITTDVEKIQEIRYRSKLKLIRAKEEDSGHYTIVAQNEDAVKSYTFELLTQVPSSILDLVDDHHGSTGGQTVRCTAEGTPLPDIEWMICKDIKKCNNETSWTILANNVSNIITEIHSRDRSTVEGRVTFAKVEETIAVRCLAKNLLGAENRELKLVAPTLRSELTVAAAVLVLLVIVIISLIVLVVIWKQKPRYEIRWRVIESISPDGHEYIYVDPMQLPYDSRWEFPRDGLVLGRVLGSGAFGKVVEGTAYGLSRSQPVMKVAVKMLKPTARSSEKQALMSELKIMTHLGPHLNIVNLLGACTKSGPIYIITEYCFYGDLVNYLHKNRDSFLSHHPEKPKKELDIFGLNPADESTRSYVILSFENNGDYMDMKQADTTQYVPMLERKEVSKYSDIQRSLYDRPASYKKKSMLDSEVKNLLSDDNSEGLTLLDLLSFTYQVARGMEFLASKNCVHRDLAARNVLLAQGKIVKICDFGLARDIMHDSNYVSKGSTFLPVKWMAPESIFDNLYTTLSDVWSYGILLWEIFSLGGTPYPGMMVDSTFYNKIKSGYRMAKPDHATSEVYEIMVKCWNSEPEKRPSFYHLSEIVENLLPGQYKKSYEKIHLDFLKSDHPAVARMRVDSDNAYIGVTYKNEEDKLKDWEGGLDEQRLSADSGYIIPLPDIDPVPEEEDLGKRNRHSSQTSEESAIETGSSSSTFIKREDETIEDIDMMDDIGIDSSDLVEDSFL

| Compound | GPR17 Fold Induction (Over Vehicle; 3 μM) [2] | IC50 (PDGFRα; [3]) | fold induction at 3 mg/kg [1] | other results |
| --- | --- | --- | --- | --- |
| Cn1cc(-c2ccc3c(N4CCN(c5ncn(Cc6ccccc6)n5)CC4)cnn3c2)cn1 [Compound 156, 3-(4-(1-benzyl-1H-1,2,4-triazol-3-yl)piperazin-1-yl)-6-(1-methyl-1H-pyrazol-4-yl)pyrazolo[1,5-a]pyridine] | 3.92 | 245 nM | 11.5 | – |
| COc1cc2c(cc1OC)-c1[nH]nc(Nc3cccc(F)c3)c1C2 [JNJ-10198409, JNJ=10198409, reference compound] | – | – | – | In vivo GPR17+ cells, GPR17 Fold Induction (Over Vehicle) [1]: 1.16; GPR17 Fold Induction (Over Vehicle; 5 μM) [2]: 3.87; IC50 (PDGFRα; [4]): > 10000 nM |
| [2H]c1c([2H])c(C(OC(=O)N2CCN(c3cnn4cc(-c5cnn(C)c5)ccc34)CC2)C([2H])([2H])[2H])c([2H])c([2H])c1Cl (stereo not shown) [Compound 291, 1-(4-chlorophenyl-2,3,5,6-d4) ethyl-2,2,2-d3 4-(6-(1-methyl-1H-pyrazol-4-yl)pyrazolo[1,5-a]pyridin-3-yl)piperazine-1-carboxylate] | 6.24 | 0.016 nM | 6.93 | – |
| COc1cc2c(Oc3ccc4[nH]c(C)cc4c3F)ccnc2cc1OCC1(N)CC1 [Anlotinib HCl, anlotinib HCl, reference compound] | – | – | – | In vivo GPR17+ cells, GPR17 Fold Induction (Over Vehicle) [1]: 17.89; GPR17 Fold Induction (Over Vehicle; 5 μM) [2]: 6.58; IC50 (PDGFRα; [4]): 1360 nM |
| Cn1cc(-c2ccc3c(N4CCN(c5ncc(C(O)C6CCOCC6)cn5)CC4)cnn3c2)cn1 (stereo not shown) [Compound 69, (2-{4-[6-(1-methyl-1H-pyrazol-4-yl)pyrazolo[1,5-a]pyridin-3-yl]piperazin-1-yl}pyrimidin-5-yl)(tetrahydro-2H-pyran-4-yl)methanol] | 4.53 | 154 nM | 1.09 | fold induction at 30 mg/kg [1]: 2.34 |
| Cn1cc(-c2ccc3c(N4CCN(S(=O)(=O)N5CCCCC5)CC4)cnn3c2)cn1 [Compound 157, 6-(1-methyl-1H-pyrazol-4-yl)-3-(4-(piperidin-1-ylsulfonyl)piperazin-1-yl)pyrazolo[1,5-a]pyridine] | 2.80 | 2100 nM | – | fold induction at 30 mg/kg [1]: 1.91 |
| Cn1cc(-c2ccc3c(N4CCN(c5ncc(Cc6ccccn6)cn5)CC4)cnn3c2)cn1 [Compound 250, 6-(1-methyl-1H-pyrazol-4-yl)-3-{4-[5-(pyridine-2-ylmethyl)pyrimidin-2-yl]piperazin-1-yl}pyrazolo[1,5-a]pyridine] | 9.74 | 80.4 nM | 6.19 | – |
| CC1CN(c2cnn3cc(-c4cnn(C)c4)ccc23)CCN1C(=O)OC(C)(C)C (stereo not shown) [Compound 238, tert-butyl-2-methyl-4-(6-(1-methyl-1H-pyrazol-4-yl)pyrazolo[1,5-a]pyridin-3-yl)piperazine-1-carboxylate] | 6.34 | 430 nM | 1.54 | – |
| Nc1nc(Nc2ccc3c(c2)CC[C@@H](N2CCCC2)CC3)nn1-c1cc2c(nn1)-c1ccccc1CCC2 [Bemcentinib, bemcentinib, reference compound] | – | – | – | In vivo GPR17+ cells, GPR17 Fold Induction (Over Vehicle) [1]: 1.09; GPR17 Fold Induction (Over Vehicle; 5 μM) [2]: 2.99; IC50 (PDGFRα; [4]): 428 nM |
| CN1CCN(c2ccc(Nc3ncc4cc(C#N)c(=O)n(C5CCCC5)c4n3)cc2)CC1 [ON123300, reference compound] | – | – | – | In vivo GPR17+ cells, GPR17 Fold Induction (Over Vehicle) [1]: 1.49; GPR17 Fold Induction (Over Vehicle; 5 μM) [2]: 6.72; IC50 (PDGFRα; [4]): 73.5 nM |
| Cn1cc(-c2cnc3c(N4CCN(C(=O)OC(C)(C)C)CC4)cnn3c2)cn1 [Compound 2, tert-butyl 4-[6-(1-methyl-1H-pyrazol-4-yl)pyrazolo[1,5-a]pyrimidin-3-yl]piperazine-1-carboxylate] | 1.46 | 1460 nM | – | fold induction at 3.3 mg/kg [1]: 1.13 |
| COc1ccc(N2Cc3cnc(Nc4ccc(F)cc4)nc3N([C@@H]3CC[C@@H](O)C3)C2=O)cc1 [RO4396686, reference compound] | – | – | – | In vivo GPR17+ cells, GPR17 Fold Induction (Over Vehicle) [1]: 9.23; GPR17 Fold Induction (Over Vehicle; 5 μM) [2]: 3.61; IC50 (PDGFRα; [4]): 370 nM |

Now from value to molecule, other results behind:

| GPR17 Fold Induction (Over Vehicle; 3 μM) [2] | IC50 (PDGFRα; [3]) | Compound | fold induction at 3 mg/kg [1] | other results |
| --- | --- | --- | --- | --- |
| 6.40 | – | C[C@@H](OC(=O)N1CCN(c2cnc3cc(-c4cnn(C)c4)cnn23)CC1)c1ccc(Cl)cc1 [Compound 282, (R)-1-(4-chlorophenyl)ethyl 4-(7-(1-methyl-1H-pyrazol-4-yl)imidazo[1,2-b]pyridazin-3-yl)piperazine-1-carboxylate] | 4.02 | IC50 Values on PDGFRα Kinase Inhibition, IC50 (nM) (PDGFRα; [5]): BLQ |
| 6.68 | 116 nM | C[C@@H](OC(=O)N1CCN(c2cnn3cc(-c4cnn(C)c4)cnc23)CC1)c1ccccc1 [Compound 73, (1R)-1-Phenylethyl 4-[6-(1-methyl-1H-pyrazol-4-yl)pyrazolo[1,5-a]pyrimidin-3-yl]piperazine-1-carboxylate] | 1.77 | – |
| 3.97 | 2110 nM | Cn1cc(-c2ccc3c(N4CCN(C(=O)NCc5ccccc5)CC4)cnn3c2)cn1 [Compound 161, N-benzyl-4-(6-(1-methyl-1H-pyrazol-4-yl)pyrazolo[1,5-a]pyridin-3-yl)piperazine-1-carboxamide] | 1.81 | – |
| 5.57 | 11.8 nM | C[C@@H](OC(=O)N1CCN(c2cnn3cc(-c4cnn(C)c4)ccc23)CC1)c1ccc(OC(F)(F)F)cc1 [Compound 268, (1R)-1-[4-(trifluoromethoxy)phenyl]ethyl 4-[6-(1-methyl-1H-pyrazol-4-yl)pyrazolo[1,5-a]pyridin-3-yl]piperazine-1-carboxylate] | 7.02 | – |
| 5.04 | 17.1 nM | Cc1ccc(C(C)OC(=O)N2CCN(c3cnn4cc(-c5cnn(C)c5)ccc34)CC2)nc1 (stereo not shown) [Compound 261, 1-(5-methylpyridin-2-yl)ethyl 4-[6-(1-methyl-1H-pyrazol-4-yl)pyrazolo[1,5-a]pyridin-3-yl]piperazine-1-carboxylate] | 3.71 | – |
| 1.14 | 1600 nM | Cn1cc(-c2ccc3c(N4CCN(C(=O)CC(C)(C)C)CC4)cnn3c2)cn1 [Compound 17, 3-[4-(3,3-dimethylbutanoyl)piperazin-1-yl]-6-(1-methyl-1H-pyrazol-4-yl)pyrazolo[1,5-a]pyridine] | – | fold induction at 3.3 mg/kg [1]: 1.14 |
| 2.45 | 1780 nM | Cn1cc(-c2ccc3c(N4CCN(c5ncc(Cc6ccccc6)o5)CC4)cnn3c2)cn1 [Compound 247, 5-benzyl-2-(4-(6-(1-methyl-1H-pyrazol-4-yl)pyrazolo[1,5-a]pyridin-3-yl)piperazin-1-yl)oxazole] | – | fold induction at 30 mg/kg [1]: 8.43 |
| 7.12 | – | C[C@@H](OC(=O)N1CCN(c2cnn3cc(-c4cnn(C)c4)ccc23)CC1)c1ccc(F)cc1 [Compound 77, (1R)-1-(4-Fluorophenyl)ethyl 4-[6-(1-methyl-1H-pyrazol-4-yl)pyrazolo[1,5-a]pyridin-3-yl]piperazine-1-carboxylate] | 8.64 | IC50 Values on PDGFRα Kinase Inhibition, IC50 (nM) (PDGFRα; [5]): BLQ |
